How the values were obtained:
Type in all cases: cell-based
A549 cells [1] = test: Detection of reactive oxygen effects by sampling media (GSSG and GSH in cells and media); settings: 1 hour
Method: A549 cells were plated at a density of 5,000 cells per well in a 96-well tissue culture plate in 100 ul of DMEM with 10% fetal calf serum and incubated for 48 hours at 37° C. with 10% CO2. After incubation, the media was removed, discarded, and replaced with HBSS buffer with or without 40 uM menadione. The plate was then incubated for 1 hour at 37° C. with 10% CO2.
After the 1 hour treatment, the HBSS buffer from the cells was transferred to a fresh, 96-well plate. The cells were then given 100 ul of fresh HBSS buffer and a concentrated solution of PLB with or without NEM. The following conditions (in triplicate) resulted from these manipulations: • 1. Cell GSH and GSSG were measured from the lysate of cells where the vehicle or menadione treatment with HBSS buffer was removed prior to lysis. • 2. Media GSH and GSSG were measure from the HBSS buffer transferred from the cells. • 3. Total GSH and total GSSG were measured from the lysate of cells treated with HBSS buffer where the HBSS buffer was not removed prior to addition of PLB.
For measurement of GSSG, samples were given a mixture containing GST-22, 25 mM NEM, and 1× Passive Lysis Buffer. For measurement of GSH, samples were given a mixture containing GST-22 and 1× Passive Lysis Buffer. Samples were incubated for 5 minutes at room temperature, and 25 μl LDR with 100 mM DTT and GST added. Samples were then incubated for 30 minutes at room temperature, and 150 μl LDR added. Luminescence was detected after 15 minute room temperature incubation.
It should be noted that one could expect the total glutathione species from the media and the cells to be about equal to the total well measurement. This calculation is shown in the third row of Table 7. The ratio of GSH to GSSG was also determined (FIG. 10).

Jurkat cells = test: Determination of GSH:GSSG ratio in Jurkat cells; settings: 60 minutes with 40 uM menadione
Method: Suspension cells, such as Jurkat or […], are washed in Krebs-Ringer, Krebs-Henseleit, or Hank's Balanced Salts (HBSS) buffers to remove traces of medium and serum. Cells are then counted and diluted in one of the above buffers at the desired density. For Jurkat cells, 10,000 to 20,000 cells/well were used. 20 μl of cell suspension (at the desired density) were then added to wells of a 96-well plate. Enough wells with cells were plated for test compound treatment, vehicle-only treatment and no treatment controls. […]
(§1) Compound treatment was removed and discarded from the adherent cells. […] Again, the plated was shook briefly, incubated at room temperature for 10 min, and luminescence read.
(§2) The […] is calculated by dividing the moles of GSH in a sample by the moles of GSSG in a sample. Because each mole of GSSG produces two moles of GSH, and the assay produces a signal from all of the GSH produced by reduction of GSSG, a 2-fold adjustment is required in the number of moles of GSH quantified by the GSH standard curve.
(§3) For background, the luminescence (RLUs) generated from no cell control or 0 μM GSH from the standard curve was used. […] The GSH/GSSG ratio for untreated cells was calculated using the formula: […]
iv. […] GSSG and GSH were detected by the method described in A. The ratio GSH/GSSG was calculated as described in B

HepG2 cells = test: Determination of GSH:GSSG ratio in HepG2 cells; settings: HepG2 cells, 5,000 cells/well, 60 minutes with 40 uM menadione
Method: (§4) The assay is optimized for low cell densities such as HeLa or HepG2 cells at 5,000-10,000 cells per well and hepatocytes at 10,000 to 20,000 cells/well. HeLa or HepG2 cells were plated on Corning Costar 3903 96-well flat bottom tissue culture-treated white with clear bottom. Hepatocytes were plated on BD BioCoat™ 4650 96-well Collagen 1 Cellware. Hepatocytes were cultured with vendor recommended hepatocyte media. If clear walled tissue culture plates are used, a transfer step must be performed after Luciferase Detection Reagent (LDR) addition to get the reactions into luminometer plates. Plate cells and incubate overnight at 37° C. in a 5% CO2 culture incubator.
(§5) Menadione is a Reactive Oxygen Species (ROS) inducer and is used as a positive control. 40 μM Menadione was prepared in Krebs-Ringer, Krebs-Henseleit, or Hank's Balanced Salts (HBSS) buffers. Other buffers […] to dilute the Menadione as components of cell culture media, such as serum, phenol red, and cysteine, can interfere with the assay chemistry. No treatment controls (vehicle only) were performed by exchanging the culture media on the cells with buffer+ vehicle at the same time as treating the cells with Menadione.
(§6) The below reagent was prepared for measurement of GSSG. […]
as §1, §2, §3
iii. […] GSSG and GSH were detected by the method described in A. The ratio GSH/GSSG was calculated as described in B.

A549 cells [2] = test: Measurements of cell lysis (LDH release and ATP levels); settings: menadione treatment, data not shown
Text: From the data in Table 7 and FIG. 9, it is clear that measurement of GSSG in the media alone would have indicated some effect of the menadione treatment on the cells.

Rat hepatocytes = test: Determination of GSH:GSSG ratio in rat hepatocytes; settings: Rat hepatocytes, 20,000 cells/well, 60 minutes with 40 uM menadione
Method: as §4
as §5, with “Menadione. […]” for “Menadione.”
as §1, §2, §3
ii: Rat hepatocytes, 20,000 cells/well, were treated as in i. GSSG and GSH were detected by the method described in A. The ratio GSH/GSSG was calculated as described in B.

HeLa cells = test: Determination of GSH:GSSG ratio in HeLa cells; settings: HeLa cells, 5,000 cells/well, 60 minutes with 40 uM menadione
Method: as §4, §5, §6, §1, §2, §3
i. […] GSSG and GSH were detected by the method described in A. The ratio GSH/GSSG was calculated as described in B.

[3] = 40 uM menadione in HBSS, HBSS buffer transferred from the cells
[4] = 40 uM menadione in HBSS, lysate of cells, buffer removed prior to lysis
[5] = 40 uM menadione, HBSS buffer not removed prior to addition of PLB
[6] = 40 uM menadione, calculated sum of cell and media

`CC1=CC(=O)c2ccccc2C1=O` [Menadione] was tested, and the “GSH, averaged RLU, Media” value (A549 cells [1]; [3]) was 3,491,077 RLU, the “GSSG, averaged RLU, Media” value (A549 cells [1]; [3]) was 2,494,444 RLU and the “GSH, averaged RLU, Cell” value (A549 cells [1]; [4]) was 10,613,488 RLU. For the same compound, the “GSSG, averaged RLU, Cell” value (A549 cells [1]; [4]) was 464,099 RLU, the “GSH, averaged RLU, Total Well” value (A549 cells [1]; [5]) was 12,903,498 RLU and the “GSSG, averaged RLU, Total Well” value (A549 cells [1]; [5]) was 3,189,598 RLU. For the same compound, the “GSH, RLU, Total (Cell + Media)” value (A549 cells [1]; [6]) was 14,104,565 RLU, the “GSSG, RLU, Total (Cell + Media)” value (A549 cells [1]; [6]) was 2,958,543 RLU and the “Ratio-Treated (GSH/GSSG)” value (Jurkat cells; Jurkat cells, 10,000 cells/well) was 3.8. For the same compound, the “Ratio-Treated (GSH/GSSG)” value (Jurkat cells; Jurkat cells, 20,000 cells/well) was 3.6, the “Ratio GSH/GSSG, treated” value (HepG2 cells) was 1.5 and the “Treated Net RLU, GSH” value (HepG2 cells) was 4162074 RLU. The “Treated Net RLU, GSSG” value (HepG2 cells) was 2364652 RLU, the “Cell lysis (LDH release and ATP levels)” value (A549 cells [2]) was “did not suggest that any lysis had taken place” and the “Ratio GSH/GSSG, treated” value (Rat hepatocytes) was 1.1. The “Treated Net RLU, GSH” value (Rat hepatocytes) was 10722488 RLU, the “Treated Net RLU, GSSG” value (Rat hepatocytes) was 6900404 RLU and the “Ratio GSH/GSSG, treated” value (HeLa cells) was 2.2. For the same compound, the “Treated Net RLU, GSH” value (HeLa cells) was 12364719 RLU and the “Treated Net RLU, GSSG” value (HeLa cells) was 5894364 RLU.
